In patent publication US4202988A, “Prostenoic acids and esters” (American Cyanamid Company, priority 1977, dated 1980):

Key:
[1] = test system: adenosine diphosphate induced platelet aggregation (human protein rich plasma); assay: Inhibition of Platelet Aggregation - In Vitro, adenosine diphosphate induced; assay type: cell-based; design: key: (-): Inhibition; (+): No inhibition
From the text: (§1) It is well known that platelet aggregation inhibitors may be useful as anti-thrombotic drugs. Inhibition of platelet aggregation can be conveniently measured in vitro by monitoring changes in optical density and/or light transmission in platelet rich plasma upon addition of suitable aggregating agents such as adenosine diphosphate, epinephrine, thrombin or collagen. Alternatively, platelet aggregation can be measured in vitro using platelet rich plasma obtained at various time intervals from animals given inhibitors by an oral or parenteral route.
(§2) Human […] is incubated with modified Tyrode's solution in a proportion of 40-50% human […]. The test compounds are added at varying concentrations and after 5 minutes incubation, an aggregating agent such as adenosine diphosphate or collagen is added. The change in optical density (light transmission) is monitored by eye and inhibition is recorded as a (-) or lack of inhibition is recorded as a (+). Test compounds are considered active if they inhibit adenosine diphosphate or collagen induced aggregation at a concentration of 25 mcg/ml or less within 5-10 minutes.

[2] = test system: collagen induced platelet aggregation (human protein rich plasma); assay: Inhibition of Platelet Aggregation - In Vitro, collagen induced; assay type: cell-based; design: key: (-): Inhibition; (+): No inhibition
From the text: as §1, §2

[3] = test system: bronchospasms elicited by 5-hydroxytryptamine; assay: Bronchodilator activity against 5-hydroxytryptamine bronchospasm (Konzett procedure); assay type: in vivo, guinea pigs; conditions: Cavia porcellus; guinea pig, three logarithmic cumulative intravenous doses
Description: (§3) Bronchodilator activity is determined in guinea pigs against bronchospasms elicited by intravenous injections of 5-hydroxytryptamine, histamine or acetylcholine by the Konzett procedure. [See J. Lulling, P. Lievens, F. El Sayed and J. Prignot, Arzeneimittel-Forschung, 18, 995 (1968).] In Table B bronchodilator activity for representative compounds of this invention against one or more of the three spasmogenic agents is expressed as an ED50 determined from the results obtained with three logarithmic cumulative intravenous doses.

[4] = test system: bronchospasms elicited by histamine; assay: Bronchodilator activity against histamine bronchospasm (Konzett procedure); assay type: in vivo, guinea pigs; conditions: Cavia porcellus; guinea pig, three logarithmic cumulative intravenous doses
Description: as §3

[5] = test system: bronchospasms elicited by acetylcholine; assay: Bronchodilator activity against acetylcholine bronchospasm (Konzett procedure); assay type: in vivo, guinea pigs; conditions: Cavia porcellus; guinea pig, three logarithmic cumulative intravenous doses
Description: as §3

## O=C(O)CCC/C=C\C[C@@H]1C(=O)C=C[C@H]1/C=C/C1(O)CCCCC1 (relative stereo) [nat-(and ent)-15-hydroxy-9-oxo-15,16-tetramethylene-17,18,19,20-tetranor-5-cis-10,13-trans-prostatrienoic Acid]
[1]; drug concentration 25 μg/ml
  Inhibition of platelet aggregation, adenosine diphosphate: (+)
[1]; drug concentration 250 μg/ml
  Inhibition of platelet aggregation, adenosine diphosphate: (-)
[2]; drug concentration 25 μg/ml
  Inhibition of platelet aggregation, collagen: (+)
[2]; drug concentration 250 μg/ml
  Inhibition of platelet aggregation, collagen: (-)
[3]
  ED50: > 3.2 µg/kg
[4]
  ED50: 0.632 µg/kg
[5]
  ED50: > 3.2 µg/kg

## N#CC1CC(=O)C(CC=CCCCC(=O)O)C1C=CC1(O)CCCCC1 (stereo not drawn) [nat(and ent)-11α/βCyano-15-hydroxy-9-ozxo-15, 16-tetramethylene-17,18,19,20-tetranor-5-cis-13-trans-prostadienoic Acid]
[1]; drug concentration 2.5 μg/ml
  Inhibition of platelet aggregation, adenosine diphosphate: (-)
[1]; drug concentration 25 μg/ml
  Inhibition of platelet aggregation, adenosine diphosphate: (-)
[1]; drug concentration 250 μg/ml
  Inhibition of platelet aggregation, adenosine diphosphate: (-)
[2]; drug concentration 25 μg/ml
  Inhibition of platelet aggregation, collagen: (-)
[2]; drug concentration 250 μg/ml
  Inhibition of platelet aggregation, collagen: (-)
[3]
  ED50: 1.81 µg/kg
[4]
  ED50: 0.367 µg/kg
[5]
  ED50: 2.74 µg/kg
